# Assay results as given in US20240316055A1, “METHODS FOR TREATING LEIGH SYNDROME” (DBCC Research, LLC, priority 2023, published 2024).
# How the values were obtained:
# [1] = system: ECHS1 knockdown larvae; experiment: Fly larva experiment: buoyancy (float/sink); type: in vivo, Drosophila; conditions: multiple doses fed to larvae; untreated ECHS1 knockdown larvae 30% sank
# Excerpt: To determine whether the Drosophila larvae experiment would be appropriate for further evaluation of compounds, the phenotype induced by ECHSI RNAi was identified. […] It was noted that when extracted from food and placed in 1X PBS, ECHS1 knockdown larvae were buoyant and sank only ˜30% of the time, while age-matched control larvae always sank at 100% frequency.
# To test the ability of drug compounds to rescue these two ECHS1 knockdown phenotypes, the larvae were fed with fly food with various concentrations of 10 candidate drugs and first measured for larval size. During the 6 days prior to collection and phenotyping, larvae were raised in the drug food and exposed to drug continuously throughout development. […] Independently, losmapimod, talmapimod, ralimetinib, and neflamapimod were selected at multiple doses and fed to larvae and the population-wide float/sink proportions were assayed. In contrast to untreated ECHS1 knockdown larvae, where 30% sank, treatment with drug compounds nearly doubled the sinking proportions to 60%. Considering the effect of ECHSI on buoyancy in light of its enzymatic function catalyzing the second step of mitochondrial fatty acid beta-oxidation, decreased ECHS1 activity was expected to increase levels of non-metabolized lipid which would increase buoyancy. Thus, compounds were identified that suppressed both quantitative and nominal phenotypes, one of which appears to be directly relevant to the enzymatic function of ECHS1.
# [2] = system: ECHS1 patient-derived fibroblasts; experiment: Mitochondrial respiration assay (Seahorse); type: cell-based; conditions: 48 hours; for respiration: glucose or galactose conditions, 1, 5 or 10 μM
# Excerpt: To assess the mechanism of action of hit compounds from the screens of previous Examples, which were based on rescue of viability after metabolic challenge, Seahorse assay was used to measure mitochondrial function in response to treatment at multiple concentrations. The Seahorse assay measures the following parameters: oxygen consumption; basal respiration rate; ATP-linked respiration; maximal respiration; reserve capacity; and ATP production rate. At baseline (no treatment), the ECHS1 patient-derived fibroblasts had lower respiration rates than the control fibroblasts in glucose culturing conditions (20% reduction) and in galactose culturing conditions (30% reduction).
# ECHS1 patient-derived fibroblasts and age-matched and sex-matched control fibroblasts were initially grown in standard media (DMEM+2 mM glutamine+1 mM pyruvate) containing 10 mM glucose as the energy source. Cells were seeded into specialized 96-well plates at a density of 10,000 cells per well. One day after plating, cells were treated with the test compounds at the concentrations of 0, 1, 5, or 10 μM. Half of the samples were cultured in 10 mM glucose media in addition to the test compounds. The remaining half of the sample were cultured in 10 mM galactose media, which is a metabolic challenge, in addition to the test compound. Test compounds were incubated with cells for 48 hours. According to the standard Seahorse protocol, the following stressors were added to cells in sequential order: 2 μM oligomycin; 5 μM carbonyl cyanide-4-(trifluoromethoxy)phenylhydrazone (FCCP); 9 μM FCCP; 2 μM rotenone and 2 μM antimycin A. Data were normalized to cell number per well using a Hoechst stain for cell nuclei. Two rounds of experiments were conducted. The results were consistent between the two rounds.
# [3] = system: ECHS1 Fibroblast cells; experiment: Galactose potency screen (cell viability, DAPI nuclei count); type: cell-based; conditions: galactose potency screen, FIG. 2
# Description: Galactose Screen: Compound library plates were obtained from Prestwick/Selleck and SPECS (7,591 compounds total, 27 compounds/plate/concentration at 1 μM and 10 μM, 384-well plates). ECHS1 Fibroblast cells were harvested at 95% confluent with trypsin and suspended in Dulbecco's Modified Eagle Medium (DMEM)+10% Fetal Bovine Serum (FBS). The suspension was centrifuged at 200x g for 5 min. The suspension was discarded and the pellet was resuspended in the 5.5 mM galactose medium (DMEM+10% FBS+5.5 mM galactose) and seeded at 750 cells/well (50 μL) into the compound wells (1 μM and 10 μM). For the positive control experiment, the cells were suspended in 5.5 mM galactose medium+5.5 mM glucose+0.01% DMSO and seeded at 750 cells/well (50 μL) into the blank wells. For the negative control experiment, the cells were suspended in the 5.5 mM galactose medium+0.01% DMSO and seeded at 750 cells/well (50 μL) into the blank wells. The seeded plates were incubated at 37° C. for 96 hours, then 15 μL/well of 16% paraformaldehyde solution was added to the plates and allowed to sit for 15 min to fix the cells. The plates were then washed 3x with 50 μL/well of phosphate-buffered saline (PBS). The cells were stained with […] of a solution of 4,6-diamidino-2-phenylindole dilactate (DAPI, Invitrogen) and left at room temperature for 1 hr. The plates were then washed 3x with 50 μL/well of PBS prior to imaging. Agilent BioTek EL406 Microplate Washer Dispenser was used for the cell fixation and staining protocol. The plates were imaged using GE InCell2200 Cell Analyzer using PerkinElmer Columbus software quantification protocol. The data was analyzed using Genedata, Vortex, and Abase software. A Z-score value of >2 was used for the Prestwick/Selleck compound library and >3 for the SPECS library (based on the negative control population) to determine hit selection.
# ECHS1 Fibroblast cells were harvested at 70-80% confluent with trypsin and suspended in DMEM+10% FBS. The suspension was centrifuged at 200x g for 5 min. The suspension was discarded and the pellet was resuspended in the either the 5.5 mM galactose medium (DMEM+10% FBS+5.5 mM of galactose) or the 10 mM propionate medium (DMEM+10% FBS+10 mM sodium propionate). The cells were seeded at 750 cells/well (50 μL) into a 384-well plate containing the test compounds (3-fold serial dilution across 10 plates, starting at 10 uM). For the positive control experiment, the cells were suspended in either the 5.5 mM galactose medium or 10 mM propionate medium+5.5 mM glucose+0.01% DMSO and seeded at 750 cells/well (50 μL) into the blank wells. For the negative control experiment, the cells were suspended in the 5.5 mM galactose or 10 mM propionate medium +0.01% DMSO and seeded at 750 cells/well (50 μL) into the blank wells. The seeded plates were incubated at 37° C. for 96 hours, then 15 μL/well of 16% paraformaldehyde solution was added to the plates and allowed to sit for 15 min to fix the cells. The plates were then washed 3x with 50 μL/well of PBS. The cells were stained with 25 μL/well of a solution of DAPI and left at room temperature for 1 hr. The plates were then washed 3x with 50 μL/well of PBS prior to imaging. Agilent BioTek EL406 Microplate Washer Dispenser was used for the cell fixation and staining protocol. The plates were imaged using GE InCell2200 Cell Analyzer using PerkinElmer Columbus software quantification protocol. The data was analyzed using Genedata, Vortex, and Abase software. A Z-score value of >2 was used for both the Prestwick/Selleck and SPECS library (based on the negative control population) to determine hit selection.
compound,measurement,setting,value
"Cc1c(F)cc(C(=O)NC2CC2)cc1-c1ccc(C(=O)NCC(C)(C)C)cn1 [losmapimod, 6-[5-(cyclopropylcarbamoyl)-3-fluoro-2-methylphenyl]-N-(2,2-dimethylpropyl)pyridine-3-carboxamide]",sinking proportions,[1],60%
same,respiration,[2],did not result in major changes
"CC(C)(C)Cn1c(N)nc2ccc(-c3[nH]c(C(C)(C)C)nc3-c3ccc(F)cc3)nc21 [ralimetinib, 5-[2-tert-butyl-4-(4-fluorophenyl)-1H-imidazol-5-yl]-3-(2,2-dimethylpropyl)imidazo[4,5-b]pyridin-2-amine]",concentration-dependent curves,[3],non-linear response
same,sinking proportions,[1],60%
same,respiration,[2],did not result in major changes
"C[C@@H]1CN(Cc2ccc(F)cc2)[C@@H](C)CN1C(=O)c1cc2c(C(=O)C(=O)N(C)C)cn(C)c2cc1Cl [talmapimod, 2-[6-chloro-5-[(2R,5S)-4-[(4-fluorophenyl)methyl]-2,5-dimethylpiperazine-1-carbonyl]-1-methylindol-3-yl]-N,N-dimethyl-2-oxoacetamide]",concentration-dependent curves,[3],non-linear response
same,sinking proportions,[1],60%
same,ATP production rates,[2],no change
same,increase in maximal respiration,"[2]; glucose-treated cells, 10 μM",11%
same,maximal respiration,[2]; glucose-treated cells,dose-dependent increase
"O=c1ncn2nc(Sc3ccc(F)cc3F)ccc2c1-c1c(Cl)cccc1Cl [neflamapimod, 5-(2,6-dichlorophenyl)-2-(2,4-difluorophenyl)sulfanylpyrimido[1,6-b]pyridazin-6-one]",concentration-dependent curves,[3],non-linear response
same,sinking proportions,[1],60%
